Laboratory results published in US20250263436A1, “BROAD-SPECTRUM ANTIVIRAL DRUG FOR ENTEROVIRUS, AND APPLICATION” (WUHAN INSTITUTE OF VIROLOGY, CHINESE ACADEMY OF SCIENCES, priority 2020, published 2025).
Several values for one entry are separate records, joined by “and”; a condition that tells them apart may be missing. Identical values can stand only once. Entries after “also recorded” stand apart in the source; their conditions may differ.

Experiments:
[1] = Toxicity assay in RD cells (CCK-8); type: cell-based; conditions: human
Experimental: (§1) (1) Different cells were plated in a 96-well plate at 100 μL per well.
(§2) (2) When the cells grew to a confluence of 70%-80%, the DMEM medium containing 10% serum was replaced with a DMEM medium containing 2% serum, and a certain concentration gradient of polypeptide RQ was added, so that the final concentrations of the polypeptide in the wells were 0.073242 μM, 0.146484 μM, 0.292969 μM, 0.585938 μM, 1.171875 μM, 2.34375 μM, 4.6875 μM, 9.375 μM, 18.75 μM, 37.5 μM, 75 μM, 150 μM, and 300 μM, respectively.
(§3) (3) The samples were collected 24 h after the addition of the polypeptide, and then 10 μL of live cell detection reagent CCK-8 was added to each well and mixed well.
(§4) (4) The plate was placed at 37° C. for 2 h.
(§5) (5) The absorbance value at OD450 was detected by a microplate reader.
(§6) (1) RD cells were plated in a 96-well plate at 100 μL per well.
(§7) (2) When the cells grew to a confluence of 70%-80%, the DMEM medium containing 10% serum was replaced with a DMEM medium containing 2% serum, and B-RQ was added so that the final concentrations in the wells were 0.46 μM, 2.34 μM, 4.68 μM, 9.37 μM, 18.75 μM, 37.5 μM, 75 μM, and 150 μM.

RD cells = experiment: Toxicity assay in RD cells (CCK-8); type: cell-based; conditions: RD cells, 24 h
Experimental: as §1, §2, §3, §4, §5, §6, §7

CVB3 = experiment: Inhibition of CVB3 in RD cells (viral RNA, qRT-PCR); type: cell-based; conditions: inhibiting CVB3 in RD cells
Experimental: (§8) (1) RD cells were plated in a 24-well plate.
(2) When the cells grew to a confluence of 70%-80%, the DMEM medium containing 10% serum was replaced with a DMEM medium containing 2% serum (the DMEM medium containing 2% serum was added in each well at an amount of 0.5 mL), and 5 μL of CVB3 virus of 1×10^6 PFU/mL was added to each well.
(§9) (3) After 1 h, the polypeptides with final concentrations of 0.3125 μM, 0.625 μM, 1.25 μM, 2.5 μM, and 5 μM were added respectively. The group without polypeptide added was used as a control.
(4) The samples were collected 24 h after the infection of CVB3 virus, and RNA was extracted with the total RNA extraction kit.
(§10) (5) The supernatant was discarded, then 350 μL of TRK lysate was added to each well, and the plate was put on a shaker for 5 min.
(§11) (6) 350 μL of 70% ethanol (DEPC) was added to each well, and then the plate was put on a shaker for 5 min.
(§12) (7) The solution in each well was transferred to a RNA extraction column for 1 min of centrifugation at 12000 g.
(§13) (8) The solution obtained in the recovery tube was reloaded on the column again for 1 min of centrifugation at 12000 g.
(§14) (9) RNA washing buffer 1 was added in the column for 30 s of centrifugation at 12000 g. […]
(§15) (14) 2 μL of RNA sample was subjected to a fluorescence quantitative experiment using the one step qRT-PCR kit. […]

Echo 11 = experiment: Inhibition of Echo 11 in RD cells (viral RNA, qRT-PCR); type: cell-based; conditions: inhibiting Echo 11 in RD cells
Experimental: as §8
(2) When the cells grew to a confluence of 70%-80%, the DMEM medium containing 10% serum was replaced with a DMEM medium containing 2% serum (the DMEM medium containing 2% serum was added in each well at an amount of 0.5 mL), and 5 μL of Echo 11 virus of 1×10^6 PFU/mL was added to each well.
as §9
(4) The samples were collected 24 h after the infection of Echo 11 virus, and RNA was extracted with the total RNA extraction kit.
as §10, §11, §12, §13, §14, §15

[2] = tested on: cell-penetrating peptide YGRKKRRQRRR (TAT)

Compound: CC(C)C[C@H](NC(=O)[C@H](C)NC(=O)[C@H](CCC(=O)O)NC(=O)[C@H](CC(C)C)NC(=O)[C@@H](NC(=O)[C@H](C)NC(=O)CNC(=O)[C@@H](NC(=O)[C@H](CO)NC(=O)[C@H](Cc1c[nH]cn1)NC(=O)[C@H](CCCNC(=N)N)NC(=O)[C@H](Cc1c[nH]cn1)NC(=O)[C@H](CC(N)=O)NC(=O)[C@H](Cc1ccc(O)cc1)NC(=O)[C@H](CCC(=O)O)NC(=O)[C@H](CCCNC(=N)N)NC(=O)CNC(=O)[C@H](CO)NC(=O)CNC(=O)[C@H](CCCNC(=N)N)NC(=O)[C@H](CCCNC(=N)N)NC(=O)[C@H](CCCNC(=N)N)NC(=O)[C@H](CCC(N)=O)NC(=O)[C@H](CCCNC(=N)N)NC(=O)[C@H](CCCNC(=N)N)NC(=O)[C@H](CCCCN)NC(=O)[C@H](CCCCN)NC(=O)[C@H](CCCNC(=N)N)NC(=O)CNC(=O)[C@@H](N)Cc1ccc(O)cc1)C(C)C)[C@@H](C)O)C(=O)N[C@@H](Cc1ccccc1)C(=O)N[C@@H](CCC(N)=O)C(=O)O [B-RQ]
- viability at 24 h, 0.46875 µM ([1]; RD cells, B-RQ 0.46875 μM, 24 h, read-out: Cell viability (%)): 99%
- viability at 24 h, 2.34375 µM ([1]; RD cells, B-RQ 2.34375 μM, 24 h, read-out: Cell viability (%)): 99.1%
- viability at 24 h, 4.6875 µM ([1]; RD cells, B-RQ 4.6875 μM, 24 h, read-out: Cell viability (%)): 98.7%
- viability at 24 h, 9.375 µM ([1]; RD cells, B-RQ 9.375 μM, 24 h, read-out: Cell viability (%)): 99.3%
- viability at 24 h, 18.75 µM ([1]; RD cells, B-RQ 18.75 μM, 24 h, read-out: Cell viability (%)): 97.8%
- viability at 24 h, 37.5 µM ([1]; RD cells, B-RQ 37.5 μM, 24 h, read-out: Cell viability (%)): 99.4%
- viability at 24 h, 75 µM ([1]; RD cells, B-RQ 75 μM, 24 h, read-out: Cell viability (%)): 96%
- viability at 24 h, 150 µM ([1]; RD cells, B-RQ 150 μM, 24 h, read-out: Cell viability (%)): 95.5%
- CC50 at 24 h ([1]; Table 1 (RD cells)): > 75 µM
- Cell viability (%) (RD cells; B-RQ 0.46875 μM): 99.47% and 98.27%
- Cell viability (%) (RD cells; B-RQ 2.34375 μM): 97.93% and 97.19%
- Cell viability (%) (RD cells; B-RQ 4.6875 μM): 100.7775% and 96.97%
- Cell viability (%) (RD cells; B-RQ 9.375 μM): 96.62% and 96.17%
- Cell viability (%) (RD cells; B-RQ 18.75 μM): 97.36%
- Cell viability (%) (RD cells; B-RQ 37.5 μM): 99.64% and 99.24%
- Cell viability (%) (RD cells; B-RQ 75 μM): 95.66%
- Cell viability (%) (RD cells; B-RQ 150 μM): 95.94% and 95.32%
- IC50 (CVB3): 2.29 µM
- IC50 (Echo 11): 0.38 µM

Compound: MBP-EV71 2C protein
- helicase activity (unwinding of HEX-labeled dsRNA substrate, gel electrophoresis) [2]: the control TAT did not affect the helicase activity of 2C (lane 4)
- helicase activity (unwinding of HEX-labeled dsRNA substrate, gel electrophoresis) (polypeptide RQ): the addition of RQ inhibited the helicase activity of 2C (lane 5); also recorded: RQ inhibited the helicase activity of EV71 2C in a dose-dependent manner
